Data taken from ChEMBL document CHEMBL3774310, “Discovery of antitumor anthra[2,3-b]furan-3-carboxamides: Optimization of synthesis and evaluation of antitumor properties” (Eur J Med Chem, 2016).
Activity calls are given as the source filed them. The calls are words filed in the database; no cut-off is given here.

What was measured:
HCT-116 [1] = test: Induction of apoptosis in p53 knockout human HCT116 cells assessed as late apoptotic cells at 1 uM after 24 hrs by Annexin V-FITC/propidium iodide staining based assay (reference value: 2 +/- 1%); format: functional
Calf thymus DNA [2] = test: Binding affinity to calf thymus DNA assessed as decrease in extinction of absorption maxima at 5 uM by spectrophotometric analysis; format: nucleic-acid assay; set-up: scale not given: the % may be the effect or the level left; details: Bos taurus
K562 = test: Binding affinity to P-gp in human K562 cells assessed as drug accumulation at 1 uM incubated for 1 to 24 hrs by flow cytometry; format: cell-based
P388 [3] = test: Antitumor activity against mouse P388 cells transplanted in DBA2/BDF1 mouse assessed as mean life span at 50 mg/kg, ip dosed daily for 5 days (reference value: 9.7 +/- 1.1 day); format: functional
[4] = Cell cycle arrest in human HCT116 cells assessed as accumulation in sub G1 phase at 1 uM after 24 to 48 hrs relative to control; format: functional, cell-based; details: HCT-116
[5] = Cell cycle arrest in human HCT116 cells assessed as decrease in G1 phase at 1 uM after 24 hrs; format: functional, cell-based; details: HCT-116
[6] = molecular target: DNA topoisomerase 2-alpha (Homo sapiens) (UniProt P11388); test: Inhibition of human topoisomerase 2-alpha assessed as attenuation of enzyme-mediated relaxation of supercoiled pBR322 DNA at 40 uM after 30 mins by agarose gel electrophoresis
DNA topoisomerase 2-alpha (Homo sapiens), sequence (P11388 whole entry): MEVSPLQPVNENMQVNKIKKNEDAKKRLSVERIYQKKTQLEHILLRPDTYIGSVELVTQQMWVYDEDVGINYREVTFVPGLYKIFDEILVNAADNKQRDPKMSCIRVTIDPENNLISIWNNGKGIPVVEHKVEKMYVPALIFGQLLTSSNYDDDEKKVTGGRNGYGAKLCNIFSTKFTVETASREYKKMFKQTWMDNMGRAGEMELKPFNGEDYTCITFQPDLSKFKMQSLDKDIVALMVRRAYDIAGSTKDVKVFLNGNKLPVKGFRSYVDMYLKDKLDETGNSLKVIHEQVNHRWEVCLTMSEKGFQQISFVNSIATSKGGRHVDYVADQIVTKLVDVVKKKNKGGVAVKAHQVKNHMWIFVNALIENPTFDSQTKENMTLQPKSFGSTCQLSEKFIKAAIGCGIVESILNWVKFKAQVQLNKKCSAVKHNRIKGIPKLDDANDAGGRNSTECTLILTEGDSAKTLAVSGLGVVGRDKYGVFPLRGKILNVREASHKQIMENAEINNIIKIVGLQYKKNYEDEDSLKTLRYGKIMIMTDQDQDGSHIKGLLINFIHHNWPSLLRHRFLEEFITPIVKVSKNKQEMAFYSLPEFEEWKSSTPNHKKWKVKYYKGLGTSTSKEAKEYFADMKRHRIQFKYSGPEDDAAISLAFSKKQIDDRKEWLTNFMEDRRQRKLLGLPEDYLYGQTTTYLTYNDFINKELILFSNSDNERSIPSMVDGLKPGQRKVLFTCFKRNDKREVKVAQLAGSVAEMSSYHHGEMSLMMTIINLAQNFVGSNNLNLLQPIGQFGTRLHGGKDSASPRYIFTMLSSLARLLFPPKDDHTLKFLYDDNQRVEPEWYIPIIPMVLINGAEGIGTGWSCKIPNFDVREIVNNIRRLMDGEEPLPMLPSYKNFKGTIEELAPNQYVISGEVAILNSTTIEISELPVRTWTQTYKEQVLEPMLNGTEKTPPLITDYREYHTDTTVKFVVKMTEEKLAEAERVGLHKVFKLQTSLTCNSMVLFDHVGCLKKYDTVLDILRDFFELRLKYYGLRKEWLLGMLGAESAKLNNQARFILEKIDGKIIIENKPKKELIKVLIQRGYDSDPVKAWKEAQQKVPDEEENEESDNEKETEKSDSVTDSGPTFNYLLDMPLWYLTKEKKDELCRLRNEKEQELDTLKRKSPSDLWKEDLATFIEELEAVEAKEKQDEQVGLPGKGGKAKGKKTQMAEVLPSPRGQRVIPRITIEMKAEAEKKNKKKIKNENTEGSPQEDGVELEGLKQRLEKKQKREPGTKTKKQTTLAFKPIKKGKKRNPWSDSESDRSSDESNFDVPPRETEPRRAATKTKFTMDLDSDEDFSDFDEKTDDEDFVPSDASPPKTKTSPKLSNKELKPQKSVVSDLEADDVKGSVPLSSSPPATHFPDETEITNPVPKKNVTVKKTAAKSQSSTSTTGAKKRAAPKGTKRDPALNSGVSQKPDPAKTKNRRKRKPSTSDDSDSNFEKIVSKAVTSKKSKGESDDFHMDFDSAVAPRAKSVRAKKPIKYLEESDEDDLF

HCT-116 [7] = test: Induction of apoptosis in human HCT116 cells assessed as viable cells at 1 uM after 24 hrs by Annexin V-FITC/propidium iodide staining based assay (reference value: 95 +/- 2%); format: functional
HCT-116 [8] = test: Induction of apoptosis in human HCT116 cells assessed as early apoptotic cells at 1 uM after 48 hrs by Annexin V-FITC/propidium iodide staining based assay (reference value: 2 +/- 1%); format: functional
HCT-116 [9] = test: Induction of apoptosis in human HCT116 cells assessed as necrotic cells at 1 uM after 48 hrs by Annexin V-FITC/propidium iodide staining based assay (reference value: 2 +/- 1%); format: functional
Calf thymus DNA [10] = test: Binding affinity to calf thymus DNA assessed as bathochromic shift at 5 uM by spectrophotometric analysis; format: nucleic-acid assay; details: Bos taurus
K562/4 = test: Binding affinity to P-gp in human K562/4 cells assessed as drug accumulation at 1 uM incubated for 1 to 24 hrs by flow cytometry; format: cell-based
[11] = molecular target: T1, DNA topoisomerase 1 (Homo sapiens) (UniProt P11387); test: Inhibition of topoisomerase 1 (unknown origin) assessed as attenuation of enzyme-mediated relaxation of supercoiled pBR322 DNA after 30 mins by agarose gel electrophoresis
T1 sequence (whole entry): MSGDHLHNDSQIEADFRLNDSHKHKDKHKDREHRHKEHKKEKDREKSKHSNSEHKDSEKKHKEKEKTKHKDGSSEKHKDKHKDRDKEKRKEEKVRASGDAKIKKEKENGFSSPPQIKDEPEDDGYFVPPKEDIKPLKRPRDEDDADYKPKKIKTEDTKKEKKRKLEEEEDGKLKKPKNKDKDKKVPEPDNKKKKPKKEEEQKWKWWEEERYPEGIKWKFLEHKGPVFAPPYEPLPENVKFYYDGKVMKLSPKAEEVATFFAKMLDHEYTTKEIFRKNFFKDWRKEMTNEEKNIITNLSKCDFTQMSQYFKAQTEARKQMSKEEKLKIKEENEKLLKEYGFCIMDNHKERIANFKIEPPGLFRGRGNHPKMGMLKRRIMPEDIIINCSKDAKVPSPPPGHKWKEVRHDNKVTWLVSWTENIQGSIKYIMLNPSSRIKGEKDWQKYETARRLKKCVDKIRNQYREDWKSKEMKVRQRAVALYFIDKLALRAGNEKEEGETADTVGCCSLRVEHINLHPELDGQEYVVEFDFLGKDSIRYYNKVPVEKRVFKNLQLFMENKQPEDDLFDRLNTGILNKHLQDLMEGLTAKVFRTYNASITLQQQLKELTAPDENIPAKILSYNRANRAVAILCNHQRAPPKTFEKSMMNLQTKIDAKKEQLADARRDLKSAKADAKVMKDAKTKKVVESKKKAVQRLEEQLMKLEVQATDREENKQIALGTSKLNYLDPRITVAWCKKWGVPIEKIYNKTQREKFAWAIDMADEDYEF

HCT-116 [12] = test: Induction of apoptosis in p53 knockout human HCT116 cells assessed as necrotic cells at 1 uM after 24 hrs by Annexin V-FITC/propidium iodide staining based assay (reference value: 2 +/- 1%); format: functional
Calf thymus DNA [13] = test: Binding affinity to calf thymus DNA at 5 uM by fluorescence assay; format: nucleic-acid assay; details: Bos taurus
P388 [14] = test: Antitumor activity against mouse P388 cells transplanted in DBA2/BDF1 mouse assessed as mean life span at 30 mg/kg, ip dosed daily for 5 days relative to control; format: functional
HCT-116 [15] = test: Induction of apoptosis in p53 knockout human HCT116 cells assessed as viable cells at 1 uM after 24 hrs by Annexin V-FITC/propidium iodide staining based assay (reference value: 93 +/- 3%); format: functional
HCT-116 [16] = test: Induction of apoptosis in human HCT116 cells assessed as late apoptotic cells at 1 uM after 24 hrs by Annexin V-FITC/propidium iodide staining based assay (reference value: 1 +/- 1%); format: functional
[17] = Cell cycle arrest in human HCT116 cells assessed as decrease in S phase at 1 uM after 24 hrs; format: functional, cell-based; details: HCT-116
[18] = Cytotoxicity against hFB-hTERT6 assessed as reduction in cell viability after 72 hrs by MTT assay; details: Homo sapiens, hFB-hTERT6, 72 h
[19] = Cell cycle arrest in p53 knockout human HCT116 cells assessed as decrease in G1 phase at 1 uM after 24 hrs; format: functional, cell-based; details: HCT-116
HCT-116 [20] = test: Induction of apoptosis in p53 knockout human HCT116 cells assessed as early apoptotic cells at 1 uM after 24 hrs by Annexin V-FITC/propidium iodide staining based assay (reference value: 2 +/- 1%); format: functional
[21] = Antiproliferative activity against human K562/4 cells after 72 hrs by MTT assay; details: K562/4, 72 h
[22] = Cell cycle arrest in human HCT116 cells assessed as accumulation in G2/M phase at 1 uM after 24 hrs; format: functional, cell-based; details: HCT-116
HCT-116 [23] = test: Induction of apoptosis in human HCT116 cells assessed as necrotic cells at 1 uM after 24 hrs by Annexin V-FITC/propidium iodide staining based assay (reference value: 2 +/- 1%); format: functional
[24] = Cell cycle arrest in p53 knockout human HCT116 cells assessed as decrease in S phase at 1 uM after 24 hrs; format: functional, cell-based; details: HCT-116
HCT-116 [25] = test: Induction of apoptosis in p53 knockout human HCT116 cells assessed as necrotic cells at 1 uM after 48 hrs by Annexin V-FITC/propidium iodide staining based assay (reference value: 2 +/- 1%); format: functional
HCT-116 [26] = test: Induction of apoptosis in p53 knockout human HCT116 cells assessed as early apoptotic cells at 1 uM after 48 hrs by Annexin V-FITC/propidium iodide staining based assay (reference value: 2 +/- 1%); format: functional
[27] = Cell cycle arrest in p53 knockout human HCT116 cells assessed as accumulation in G2/M phase at 1 uM after 24 hrs; format: functional, cell-based; details: HCT-116
[28] = HCT-116, 24 h, read-out: Activity

Compound | Activity (HCT-116 [1]) | Activity (Calf thymus DNA [2]) [%] | Activity (K562) | Activity (P388 [3]) [days] | Activity [4] [%] | Activity [5] | Activity [6] | Activity (HCT-116 [8]) | Activity (HCT-116 [9]) | Activity (Calf thymus DNA [10]) [nm] | Activity (K562/4) | Activity [11] | Activity (HCT-116 [12]) | Activity (Calf thymus DNA [13]) | Activity (P388 [14]) [%] | Activity (HCT-116 [16]) | Activity [17] | IC50 [18] [µM] | Activity [19] | Activity (HCT-116 [20]) | further results
CS(=O)(=O)O.Cc1oc2c(O)c3c(c(O)c2c1C(=O)N1CC[C@H](N)C1)C(=O)c1ccccc1C3=O | 12% | 36 | inactive | 6.5 | > 70 | Active | Active | 45% | 30% | 9 | inactive | Dose-dependent effect | 11% | Active | 214 | 12% | Active | > 50 | Active | 17% | viability at 1 µM (HCT-116 [7]; [28]): 58%; viability at 1 µM (HCT-116 [15]; [28]): 54%; IC50 [21]: 1.4 µM; Activity [22]: Active; Activity (HCT-116 [23]): 10%; Activity [24]: Active; Activity (HCT-116 [25]): 33%; Activity (HCT-116 [26]): 46%; Activity [27]: Active
CS(=O)(=O)O.Cc1oc2c(O)c3c(c(O)c2c1C(=O)N1CC[C@@H](N)C1)C(=O)c1ccccc1C3=O | Active | 36 | inactive | 17.3 | > 70 | Active | Active | Active | Active | 9 | inactive | Dose-dependent effect | Active | Active | 122 | Active | Active | > 50 | Active | Active | Activity (HCT-116 [7]): Active; Activity (HCT-116 [15]): Active; IC50 [21]: 1.3 µM; Activity [22]: Active; Activity (HCT-116 [23]): Active; Activity [24]: Active; Activity (HCT-116 [25]): Active; Activity (HCT-116 [26]): Active; Activity [27]: Active
